Columns and labels:
[1] = molecular target: human Orexin type 1 receptors (Homo sapiens (Human), UniProt O43613); test: Scintillation Proximity Assay (SPA) binding assay, [3H]SB-674042 displacement, CHO-hOX1 membranes
[2] = molecular target: human Orexin type 2 receptors (Homo sapiens (Human), UniProt O43614); test: Scintillation Proximity Assay (SPA) binding assay, [3H]EMPA displacement, HEK-hOX2 membranes
Sequence of human Orexin type 2 receptors (O43614 whole entry): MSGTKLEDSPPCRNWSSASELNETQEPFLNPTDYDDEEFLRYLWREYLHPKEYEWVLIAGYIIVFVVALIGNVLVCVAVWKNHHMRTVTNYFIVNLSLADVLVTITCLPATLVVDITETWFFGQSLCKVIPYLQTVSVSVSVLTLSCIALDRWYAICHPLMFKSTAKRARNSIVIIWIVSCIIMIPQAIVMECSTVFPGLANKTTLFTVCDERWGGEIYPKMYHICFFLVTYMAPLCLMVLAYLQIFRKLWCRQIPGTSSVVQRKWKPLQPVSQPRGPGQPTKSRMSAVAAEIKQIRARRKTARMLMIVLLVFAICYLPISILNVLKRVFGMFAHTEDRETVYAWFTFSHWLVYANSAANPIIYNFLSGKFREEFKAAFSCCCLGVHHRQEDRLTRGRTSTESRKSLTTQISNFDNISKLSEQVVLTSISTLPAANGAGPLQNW

Sequence of human Orexin type 1 receptors (O43613 whole entry): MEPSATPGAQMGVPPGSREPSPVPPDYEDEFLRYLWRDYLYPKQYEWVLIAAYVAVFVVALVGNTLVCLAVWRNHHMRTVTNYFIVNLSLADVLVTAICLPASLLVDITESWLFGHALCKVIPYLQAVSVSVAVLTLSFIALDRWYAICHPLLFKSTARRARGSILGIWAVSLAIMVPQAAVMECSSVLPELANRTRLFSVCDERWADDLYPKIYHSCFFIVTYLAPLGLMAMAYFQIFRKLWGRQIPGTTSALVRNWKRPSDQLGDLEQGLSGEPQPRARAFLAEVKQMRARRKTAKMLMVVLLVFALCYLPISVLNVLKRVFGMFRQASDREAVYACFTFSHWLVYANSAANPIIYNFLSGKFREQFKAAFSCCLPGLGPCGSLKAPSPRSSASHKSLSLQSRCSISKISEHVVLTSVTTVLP

| SMILES | OX1 pKi (SPA binding) ([1]; Table 2, [3H]SB-674042 2 nM) | OX2 pKi (SPA binding) ([2]; Table 2, [3H]EMPA 2 nM) | OX1 pKi (SPA binding) ([1]; Table 1, [3H]SB-674042 2 nM) | OX2 pKi (SPA binding) ([2]; Table 1, [3H]EMPA 2 nM) |
| --- | --- | --- | --- | --- |
| Cc1ccc(-n2nccn2)c(C(=O)N2C3CC(C3)[C@@H](C)C2CNc2cnc(C(F)(F)F)cn2)n1 (single isomer, unassigned) [Example 166, N-{[(3S,4R) or (3R,4S)-4-methyl-2-[6-methyl-3-(2H-1,2,3-triazol-2-yl)pyridine-2-carbonyl]-2-azabicyclo[3.1.1]heptan-3-yl]methyl}-5-(trifluoromethyl)pyrazin-2-amine] | 6.99 | 4.29 |  |  |
| Cc1nc(C(=O)N2C3CC(C3)[C@@H](C)C2COc2ccc(F)cc2)c(-c2cncc(Cl)c2)s1 (mixture of isomers) [Example 139, cis-2-[5-(5-chloropyridin-3-yl)-2-methyl-1,3-thiazole-4-carbonyl]-3-[(4-fluorophenoxy)methyl]-4-methyl-2-azabicyclo[3.1.1]heptane] | 7.85 | 6.18 |  |  |
| Cc1ccc(-n2nccn2)c(C(=O)N2C3CC(C3)[C@@H](C)C2COc2ccc(C(F)(F)F)cn2)n1 (mixture of isomers) [Example 129, cis-4-methyl-2-[6-methyl-3-(2H-1,2,3-triazol-2-yl)pyridine-2-carbonyl]-3-({[5-(trifluoromethyl)pyridin-2-yl]oxy}methyl)-2-azabicyclo[3.1.1]heptane] | 6.81 | 5.14 |  |  |
| Cc1ccc(-n2nccn2)c(C(=O)N2C3CC(C3)[C@@H](C)C2CNc2cnc3cc(F)ccc3n2)n1 (mixture of isomers) [Example 198, cis-6-fluoro-N-({4-methyl-2-[6-methyl-3-(2H-1,2,3-triazol-2-yl)pyridine-2-carbonyl]-2-azabicyclo[3.1.1]heptan-3-yl}methyl)quinoxalin-2-amine] | 8.07 | 6.27 |  |  |
| Cc1ccc(-n2nccn2)c(C(=O)N2C3CC(C3)[C@@H](C)C2CNc2ccc3ccccc3n2)n1 (mixture of isomers) [Example 161, cis-N-({4-methyl-2-[6-methyl-3-(2H-1,2,3-triazol-2-yl)pyridine-2-carbonyl]-2-azabicyclo[3.1.1]heptan-3-yl}methyl)quinolin-2-amine] | 7.32 | 5.2 |  |  |
| Cc1ccc(-n2nccn2)c(C(=O)N2C3CC(C3)[C@@H](C)C2CNc2ccc(F)c(C)n2)n1 (mixture of isomers) [Example 196, cis-5-fluoro-6-methyl-N-({4-methyl-2-[6-methyl-3-(2H-1,2,3-triazol-2-yl)pyridine-2-carbonyl]-2-azabicyclo[3.1.1]heptan-3-yl}methyl)pyridin-2-amine] | 7.65 | 5.74 |  |  |
| Cc1nc(C(=O)N2C3CC(C3)[C@H](C)C2COc2ccc(F)cc2)c(-c2ncccn2)s1 (mixture of isomers) [Example 113, trans-3-[(4-fluorophenoxy)methyl]-4-methyl-2-[2-methyl-5-(pyrimidin-2-yl)-1,3-thiazole-4-carbonyl]-2-azabicyclo[3.1.1]heptane] | 8.21 | 5.72 |  |  |
| Cc1ccc(-n2nccn2)c(C(=O)N2C3CC(C3)[C@@H](C)C2CNc2cnc3cc(F)c(F)cc3n2)n1 (mixture of isomers) [Example 201, cis-6.7-difluoro-N-({4-methyl-2-[6-methyl-3-(2H-1,2,3-triazol-2-yl)pyridine-2-carbonyl]-2-azabicyclo[3.1.1]heptan-3-yl}methyl)quinoxalin-2-amine] | 7.97 | 6.55 |  |  |
| C[C@@H]1C2CC(C2)N(C(=O)c2cc(F)ccc2-n2nccn2)C1CNc1ccc(C(F)(F)F)cn1 (single isomer, unassigned) [Example 192, N-({(3R,4S) or (3S,4R)2-[5-fluoro-2-(2H-1,2,3-triazol-2-yl)benzoyl]-4-methyl-2-azabicyclo[3.1.1]heptan-3-yl}methyl)-5-(trifluoromethyl)pyridin-2-amine] | 8.13 | 5.19 |  |  |
| Cc1ccc(-n2nccn2)c(C(=O)N2C3CC(C3)[C@H](C)C2COc2ccc(Cl)cc2)n1 (single isomer, unassigned) [Example 119, (3S,4S) or (3R,4R)-3-[(4-chlorophenoxy)methyl]-4-methyl-2-[6-methyl-3-(2H-1,2,3-triazol-2-yl)pyridin-2-carbonyl]-2-azabicyclo[3.1.1]heptane] | 7.08 | 5.77 |  |  |
| C[C@@H]1C2CC(C2)N(C(=O)c2cc(Cl)ccc2-n2nccn2)C1CNc1ncc(C2CC2)cn1 (some centres unmarked) [Example 259] | 7.66 | 5.32 |  |  |
| Cc1cnn(-c2ccc(C)nc2C(=O)N2C3CC(C3)[C@@H](C)C2COc2ccc(F)cc2)c1 (mixture of isomers) [Example 135, cis-3-[(4-fluorophenoxy)methyl]-4-methyl-2-[6-methyl-3-(4-methyl-1H-pyrazol-1-yl)pyridine-2-carbonyl]-2-azabicyclo[3.1.1]heptane] | 7.78 | 6.39 |  |  |
| Cc1ccc(OCC2CC3CC(C3)N2C(=O)c2nc(C)sc2-c2ccccc2)cc1 (centres unmarked) [Example 48] |  |  | 7.45 | 6.53 |
| Cc1ccc(-n2nccn2)c(C(=O)N2C3CC(C3)[C@@H](C)C2CNc2ccc(C(F)(F)F)cn2)n1 (mixture of isomers) [Example 181, cis-N-({4-methyl-2-[6-methyl-3-(2H-1,2,3-triazol-2-yl)pyridine-2-carbonyl]-2-azabicyclo[3.1.1]heptan-3-yl}methyl)-5-(trifluoromethyl)pyridin-2-amine] | 8.09 | 5.09 |  |  |
| Cc1ccc(-c2sc(C)nc2C(=O)N2C3CC(C3)[C@@H](C)C2COc2ccc(F)cc2)cn1 (stereo partly drawn) [Example 143, cis-3-[(4-fluorophenoxy)methyl]-4-methyl-2-[2-methyl-5-(6-methylpyridin-3-yl)-1,3-thiazole-4-carbonyl]-2-azabicylco[3.1.1]heptane] | 7.14 | 5.93 |  |  |
| Cc1ccc(-n2nccn2)c(C(=O)N2C3CC(C3)[C@@H](C)C2CNc2nc3ccc(F)cc3o2)n1 (single isomer, unassigned) [Example 219, 6-fluoro-N-{[(3S,4R) or (3R,4S)-4-methyl-2-[6-methyl-3-(2H-1,2,3-triazol-2-yl)pyridine-2-carbonyl]-2-azabicyclo[3.1.1]heptan-3-yl]methyl}-1,3-benzoxazol-2-amine] | 8.71 | 5.79 |  |  |
| Cc1cn(-c2ccc(C)nc2C(=O)N2C3CC(C3)[C@@H](C)C2COc2ccc(F)cc2)nn1 (mixture of isomers) [Example 146, cis-3-[(4-fluorophenoxy)methyl]-4-methyl-2-[6-methyl-3-(4-methyl-1H-1,2,3-triazol-1-yl)pyridine-2-carbonyl]-2-azabicyclo[3.1.1]heptane] | 6.88 | 5.53 |  |  |
| Cc1nc(C(=O)N2C(COc3nc4ccc(F)cc4s3)CC3CC2C3)c(-c2ccccc2)s1 (centres unmarked) [Example 54] |  |  | 7.77 | 7.03 |
| Cc1ccc(-n2nccn2)c(C(=O)N2C3CC(C3)[C@@H](C)C2CNc2cnc(C(F)(F)F)cn2)c1 (single isomer, unassigned) [Example 256, N-{[(3R,4S) or (3S,4R)-4-methyl-2-[5-methyl-2-(2H-1,2,3-triazol-2-yl)benzoyl]-2-azabicyclo[3.1.1]heptan-3-yl]methyl}-5-(trifluoromethyl)pyrazin-2-amine] | 8.75 | 5.18 |  |  |
| Cc1nc(C(=O)N2C3CC(C3)[C@@H](C)C2COc2ccc(F)cc2)c(-c2cnccn2)s1 (mixture of isomers) [Example 136, cis-3-[(4-fluorophenoxy)methyl]-4-methyl-2-[2-methyl-5-(pyrazin-2-yl)-1,3-thiazole-4-carbonyl]-2-azabicyclo[3.1.1]heptane] | 7.26 | 5.92 |  |  |
| C[C@@H]1C2CC(C2)N(C(=O)c2cc(F)ccc2-n2nccn2)C1CNc1cnc2ccccc2n1 (single isomer, unassigned) [Example 189, N-({(3R,4S) or (3S,4R)2-[5-fluoro-2-(2H-1,2,3-triazol-2-yl)benozyl]-4-methyl-2-azabicyclo[3.1.1]heptan-3-yl}methyl)quinoxalin-2-amine] | 8.51 | 5.92 |  |  |
| Cc1ccc(-c2ncc(C(F)(F)F)cn2)c(C(=O)N2C3CC(C3)[C@@H](C)C2COc2ccc(F)cc2)n1 (mixture of isomers) [Example 133, cis-3-[(4-fluorophenoxy)methyl]-4-methyl-2-{6-methyl-3-[5-(trifluoromethyl)pyrimidin-2-yl]pyridine-2-carbonyl}-2-azabicyclo[3.1.1]heptane] | 7.25 | 6.79 |  |  |
| Cc1nc(C(=O)N2C(COc3ccc4ccccc4n3)CC3CC2C3)c(-c2ccccc2)s1 (centres unmarked) [Example 56] |  |  | 7.98 | 7.12 |
| C[C@@H]1C2CC(C2)N(C(=O)c2cc(F)ccc2-n2nccn2)C1CNc1ccc(C(F)(F)F)cn1 (mixture of isomers) [Example 190, cis-N-({2-[5-fluoro-2-(2H-1,2,3-triazol-2-yl)benzoyl]-4-methyl-2-azabicyclo[3.1.1]heptan-3-yl}methyl)-5-(trifluoromethyl)pyridin-2-amine] | 7.8 | 4.98 |  |  |
| Cc1ccc(-n2nccn2)c(C(=O)N2C3CC(C3)[C@@H](C)C2CNc2nc3cccnc3s2)n1 (stereo partly drawn) [Example 184, cis-N-({4-methyl-2-[6-methyl-3-(2H-1,2,3-triaozl-2-yl)pyridine-2-carbonyl]-2-azabicyclo[3.1.1]heptan-3-yl}methyl)-[1,3]thiazolo[5,4-b]pyridin-2-amine] | 8.08 | 5.07 |  |  |
